Starred links: 1 amine or outer side, 2 acyl side, 3 side chain; linkers in the order of their positions; H or OH if unused. Non-standard residues stand in square brackets, D forms with d. Residues, ends and D or L forms follow the SMILES beside them. Groups on a side chain read outwards from the residue. *: point of attachment. γGlu = O=C(O)[C@H](CCC(=O)[*:2])N[*:1]; αMeF = C[C@](N)(Cc1ccccc1)C(=O)O; αMeK = C[C@](N)(CCCCN)C(=O)O; Lauroyl = CCCCCCCCCCCC(=O)*; αMeS = C[C@](N)(CO)C(=O)O; AEEA = NCCOCCOCC(=O)O; Aib = CC(C)(N)C(=O)O
Assays:
[1] = target: T1, GLP-1 receptor (Rattus norvegicus, UniProt P32301); experiment: cAMP assay, INSle assay as described in WO 2016/198544; type: cell-based; settings: in vitro potency at the GLP-1 receptor
T1 construct: endogenous in cells; host or cells: INS-1E rat insulinoma cells (printed as 'INSle')
T1 sequence (P32301 22-463): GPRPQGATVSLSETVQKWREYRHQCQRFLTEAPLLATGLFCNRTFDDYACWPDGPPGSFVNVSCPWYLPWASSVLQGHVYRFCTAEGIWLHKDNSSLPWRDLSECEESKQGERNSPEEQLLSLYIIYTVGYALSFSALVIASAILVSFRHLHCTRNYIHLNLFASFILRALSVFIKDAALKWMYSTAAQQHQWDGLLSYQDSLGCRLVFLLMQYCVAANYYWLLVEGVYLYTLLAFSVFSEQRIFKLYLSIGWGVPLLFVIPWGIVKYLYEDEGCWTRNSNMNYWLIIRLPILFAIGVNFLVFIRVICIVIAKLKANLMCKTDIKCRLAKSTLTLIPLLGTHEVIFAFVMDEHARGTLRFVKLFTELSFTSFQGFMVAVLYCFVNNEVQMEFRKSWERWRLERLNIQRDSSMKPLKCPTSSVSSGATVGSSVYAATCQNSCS
Source text: The biological activity of a GLP-1 peptide analog can be evaluated, for example, by assessing the ability of the peptide to activate a receptor (e.g., a GLP-1 receptor). Peptide activation of such receptors results in downstream accumulation of cAMP second messenger which can be measured in a functional activity assay.

[2] = in vivo; settings: beagle, dog, po
Source text: The following materials and methods were used for quantitative measurements of GLP-1 peptide analogs in plasma (e.g., rat or dog plasma) in the Examples below. These methods used a SCIEX 6600 TripleTOF mass spectrometer coupled with a Shimadzu ultra-high performance liquid chromatography (UHPLC). The specificity of the method was ensured by the retention time, the selected mass for Single-Reaction-Monitoring (SRM) mode, and the selected fragment mass in MS/MS (MS^2) mode. […] The analytes of interest were analyzed from plasma, a complex biological matrix. Although protein precipitation using organic solvent can reduce matrix interference, significant background still persists. The high mass accuracy offered by the TripleTOF mass spectrometers further eliminated background noise, thus enhancing signal: noise (S/N) and allowing improved quantification.
The plasma extraction procedure used the following steps: • Samples, standards, and quality controls were incubated until they reached room temperature. They were then incubated at 60° C. for 2 minutes and cooled down to room temperature, vortexed, and spun down. • 70 μL of samples, standards, or quality controls were transferred into a 1 mL 96-well plate. • In each well, 420 uL of Precipitation Solution was added. The plate was sealed and shook for 10 minutes on a plate shaker at 600 rpm. • The plate was centrifuged at 18G, 2500 RFC, 20° C. for 10 minutes. • The plate was carefully removed, and the upper clear supernatant was extracted with a 200 uL multichannel pipette into a new 96-well protein lobind plate. The supernatant was extracted twice for each well, and the supernatants were combined. • The Plate was placed in TurboVap and the extracted supernatant was dried completely with heated (65° C.) Nitrogen gas at 60 Fahrenheit (Fh). • After the plate was completely dry, the plates were covered and incubated at room temperature for at least 30 minutes until the plate returned back to ambient temperature. • 150 μL of Reconstitution solution was added to each well. The plate was covered with a pierceable place seal and shaken at 600 rpm for 10 minutes. • The samples were submitted to the LC-MS/MS on the same day of Preparation
Quantification of the data obtained using the high resolution SCIEX 6600 instrument was then performed as follows: • For the quantification, extracted ion chromatograms (XIC) using 0.2 Da m/z extraction window centered on the accurate mass of each fragment ion were generated. Accurate mass was calculated from the structure of the compound. […] Concentrations of the target analyte in unknown samples were obtained by regression analysis using linear fits of peak areas vs. analyte concentration, weighted 1/(concentration). • The quality of the assay was controlled by the quality control samples. • Either Experiment 1 or Experiment 2 could be used for the quantification of the GLP-1 peptide analogs in high resolution mode.
MEDI7219 (SEQ ID NO:2) formulations were studied in the following canine study, which was designed to compare different tablet delivery systems and peptides in enterically coated tablet formulation compositions delivered orally. […]
The efficacy of sodium caprate as a permeation enhancer was also evaluated.

[3] = test system: Caco-2 cells; experiment: Caco-2 study, Permeability (%) of lipidated peptides (Example 3); type: in vitro ADME, human; settings: 0.1 mg/mL peptide
Procedure, shortened: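 Caco-2 monolayers on Transwell filters; peptides with permeation enhancers added apically, incubated for set periods. Peptide in starting sample and apical and basal media measured by HPLC. Permeability (%) = cumulative amount transported divided by original loading amount.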

| SMILES | EC50 [1] [nM] | AUC [2] [ng·h/mL] | half-life [2] [h] | Permeability (%) ([3]; 5.0 mg/mL Chitosan) | Permeability (%) ([3]; 5.0 mg/mL Octyl β-D-glucopyranoside) | Permeability (%) ([3]; 5.0 mg/mL Sodium Chenodeoxycholate) | Permeability (%) ([3]; 5.0 mg/mL Tri-Me-Chitosan) | Permeability (%) ([3]; 25 mg/mL Chitosan) | Permeability (%) ([3]; 25 mg/mL Octyl β-D-glucopyranoside) | Permeability (%) ([3]; 25 mg/mL Sodium Chenodeoxycholate) | Permeability (%) ([3]; 25 mg/mL Tri-Me-Chitosan) | Permeability (%) ([3]; no enhancer) |
| --- | --- | --- | --- | --- | --- | --- | --- | --- | --- | --- | --- | --- |
| CCCCCCCCCCCC(=O)N[C@@H](CCC(=O)NCCOCCOCC(=O)NCCOCCOCC(=O)NCCCC[C@H](NC(=O)[C@H](C)NC(=O)[C@@H](NC(=O)[C@](C)(Cc1ccccc1)NC(=O)[C@H](CCC(=O)O)NC(=O)[C@](C)(CCCCN)NC(=O)[C@H](C)NC(=O)[C@H](C)NC(=O)[C@H](CCC(=O)O)NC(=O)CNC(=O)[C@H](CCC(=O)O)NC(=O)[C@H](CC(C)C)NC(=O)[C@H](CCCCNC(=O)COCCOCCNC(=O)COCCOCCNC(=O)CC[C@H](NC(=O)CCCCCCCCCCC)C(=O)O)NC(=O)[C@H](CO)NC(=O)[C@](C)(CO)NC(=O)[C@@H](NC(=O)[C@H](CC(=O)O)NC(=O)[C@H](CO)NC(=O)[C@@H](NC(=O)[C@](C)(Cc1ccccc1)NC(=O)[C@H](CO)NC(=O)CNC(=O)[C@H](CCC(=O)O)NC(=O)C(C)(C)NC(=O)[C@@H](N)Cc1c[nH]cn1)[C@@H](C)O)C(C)C)[C@@H](C)CC)C(=O)N[C@H](C(=O)N[C@H](C(=O)N[C@@H](CCC(=O)O)C(=O)NCC(=O)NCC(N)=O)C(C)C)C(C)C)C(=O)O [MEDI7219, Free-H-[AIB]-EGS-[αMePhe]-TSDV-[αMeSer]-SK[(PEG2)2-γE-Lauroyl]-LEGEAA-[αMeLys]-E-[αMePhe]-IAK[(PEG2)2-γE-Lauroyl]-VVEGG-amide] (H-H[Aib]EGS[αMeF]TSDV[αMeS]SK([AEEA-AEEA-γGlu-Lauroyl])LEGEAA[αMeK]E[αMeF]IAK([AEEA-AEEA-γGlu-Lauroyl])VVEGG-NH2) | ~0.116 | 13500 | 10 | – | – | – | – | – | – | – | – | – |
| CC[C@H](C)[C@H](NC(=O)C(C)(Cc1ccccc1)NC(=O)[C@H](CCC(=O)O)NC(=O)[C@H](CCCCNC(=O)COCCOCCNC(=O)COCCOCCNC(=O)CC[C@H](NC(=O)CCCCCCCCCCCCCCCCC(=O)O)C(=O)O)NC(=O)[C@H](C)NC(=O)[C@H](C)NC(=O)[C@H](CCC(=O)O)NC(=O)CNC(=O)[C@H](CCC(=O)O)NC(=O)[C@H](CC(C)C)NC(=O)C(C)(Cc1ccccc1)NC(=O)[C@H](CO)NC(=O)C(C)(CO)NC(=O)[C@@H](NC(=O)[C@H](CC(=O)O)NC(=O)[C@H](CO)NC(=O)[C@@H](NC(=O)C(C)(Cc1ccccc1)NC(=O)[C@H](CO)NC(=O)CNC(=O)[C@H](CCC(=O)O)NC(=O)C(C)(C)NC(=O)[C@@H](N)Cc1c[nH]cn1)[C@@H](C)O)C(C)C)C(=O)N[C@@H](C)C(=O)NC(C)(Cc1ccccc1)C(=O)N[C@H](C(=O)N[C@H](C(=O)NC(C)(CCCCN)C(=O)NCC(=O)NCC(N)=O)C(C)C)C(C)C (stereo partly drawn) [SEQ ID NO: 3, Free-H-[AIB]-EGS-[αMePhe]-TSDV-[αMeSer]-S-[αMePhe]-LEGEAAK[(PEG2)2-γE-Stearate]-E-[αMePhe]-IA-[αMePhe]-VV-[αMeLys]-GG-amide] | – | – | – | 0 | 0 | 1.7 | 0 | 0 | 2.0 | 12.6 | 0 | 0 |

— US11173124B2, “Oral delivery of GLP-1 peptide analogs” (MEDIMMUNE LIMITED, priority 2017, dated 2021)
